Experimental data from patent US20230226136A1, “A SYNERGISTIC FORMULATION FOR MANAGEMENT OF RESPIRATORY PATHOGENS INCLUDING CORONAVIRUSES” (priority 2020, published 2023).

How the values were obtained:
[1] = Effective concentrations of components of the formulation (tested in 200 uL of the formulation); settings: for Actual concentrations that were effective in 200 uL, 1:20 dilution: concentration of the component within the formulation at 1:20 dilution
Protocol: Table 1 depicts the concentration of the biological, non-toxic peptide molecules included in the formulation of the present invention. The synergistic formulation of the present invention is prepared in various combinations of the constituents including protease inhibitor, 9 Arg, ion chelator, FDHIVY, Poly-Lys (L8), Anti-HAT, and vitamin B12. Each combination may include some of the above mentioned constituents depending on the use of the formulation. These concentrations of the components of the synergistic formulations of the present invention have been tested to be effective in 200 μL of the formulation.

SARS-CoV-2 = experiment: IC-50 plaque assay against SARS-CoV-2; assay type: cell-based; settings: highest concentration tested 25 μM, FIG. 3
Protocol: The IC-50 value of Remdesivir was calculated by considering the top and baseline value 100 and 0 respectively.
The IC-50 of the test material was calculated by considering the top and baseline value 100 and 0 respectively.

9-L-Arginine-peptide [9 Arg]
Actual concentrations that were effective in 200 uL, 1:20 dilution [1]: 2 mM | Actual concentrations that were effective in 200 uL, 1:30 dilution ([1]; concentration of the component within the formulation at 1:30 dilution): 1.3 mM

CCC(CC)COC(=O)[C@H](C)N[P@](=O)(OC[C@H]1O[C@@](C#N)(c2ccc3c(N)ncnn23)[C@H](O)[C@@H]1O)Oc1ccccc1 [Remdesivir]
reduction in viral load (SARS-CoV-2): up to 86.84%

Phenylalanine-Aspartic acid-Histidine-Isoleucine-Valine-Tyrosine [FDHIVY]
Actual concentrations that were effective in 200 uL, 1:20 dilution [1]: 0.25 µg/mL
